In one series the test system is S. aureus TOUR. The series can be described thus: In vitro antibacterial activity (MIC), S. aureus TOUR. The class given is cell-based. As for the experimental part:
Minimal inhibitory concentration (MIC) are determined by the twofold serial dilution method in Brain heart infusion broth (Difco); it is supplemented with 2% bovine serum when streptococci are tested. […] The MIC is defined as the lowest concentration which prevents visible growth after overnight incubation at 37° C. The influence of serum is determined on S. aureus Tour by adding 30% bovine serum to the medium. […] The antimicrobial activities of the compounds of the invention in comparison with reference compound (actagardine) are reported in the following Table IV:
^(2) In the presence of 30% bovine serum

The test system of series [1] is S. pyogenes C 203. The series can be described thus: In vitro antibacterial activity (MIC), S. pyogenes C 203. The class given is cell-based. Conditions: 2% bovine serum, ~10^3 CFU/ml. As for the experimental part:
(§1) Minimal inhibitory concentration (MIC) are determined by the twofold serial dilution method in Brain heart infusion broth (Difco); it is supplemented with 2% bovine serum when streptococci are tested. The inoculum size is about 10^3 colony units per ml (CFU/ml). The MIC is defined as the lowest concentration which prevents visible growth after overnight incubation at 37° C. The influence of serum is determined on S. aureus Tour by adding 30% bovine serum to the medium. […] The antimicrobial activities of the compounds of the invention in comparison with reference compound (actagardine) are reported in the following Table IV: […]

Another series concerns S. pneumoniae UC 41. The series can be described thus: In vitro antibacterial activity (MIC), S. pneumoniae UC 41. The format is cell-based. Particulars: 2% bovine serum, ~10^3 CFU/ml. As for the experimental part:
as §1

In another series the test system is S. mitis L 1320. The series can be described thus: In vitro antibacterial activity (MIC), S. mitis L 1320. Particulars: S. mitis L 1320, clinical isolate; 2% bovine serum. The format is cell-based. How it is done:
(§2) Minimal inhibitory concentration (MIC) are determined by the twofold serial dilution method in Brain heart infusion broth (Difco); it is supplemented with 2% bovine serum when streptococci are tested. The inoculum size is about 10^3 colony units per ml (CFU/ml). The MIC is defined as the lowest concentration which prevents visible growth after overnight incubation at 37° C. The influence of serum is determined on S. aureus Tour by adding 30% bovine serum to the medium. […] The antimicrobial activities of the compounds of the invention in comparison with reference compound (actagardine) are reported in the following Table IV:
(§3) ^(3) Clinical isolates.

The subject of the next series is S. faecalis D L 1321. The series can be described thus: In vitro antibacterial activity (MIC), S. faecalis D L 1321. The format is cell-based. Conditions: S. faecalis D L 1321, clinical isolate; 2% bovine serum. As for the experimental part: as §2, §3
The next series relates to S. salivarius L 1323. The series can be described thus: In vitro antibacterial activity (MIC), S. salivarius L 1323. The class given is cell-based. Particulars: S. salivarius L 1323, clinical isolate; 2% bovine serum. As for the experimental part:
as §2, §3

In a further series the test system is S. sanguis H L 1324. In words: In vitro antibacterial activity (MIC), S. sanguis H L 1324. The format is cell-based. Particulars: S. sanguis H L 1324, clinical isolate; 2% bovine serum. As for the experimental part:
as §2, §3

A further series relates to S. bovis D L 1325. In words: In vitro antibacterial activity (MIC), S. bovis D L 1325. Particulars: S. bovis D L 1325, clinical isolate; 2% bovine serum. The class given is cell-based. How it is done:
as §2, §3

For series [2], the system named is S. pyogenes C 203. The series can be described thus: In vivo test in mice experimentally infected with S. pyogenes C 203. Conditions: mice infected i.p. with S. pyogenes C 203; s.c. once a day for three days; survival on 10th day. How it is done: (§4) The antimicrobial activity of the compounds of the invention is also confirmed in in vivo test in mices experimentally infected with S. pyogenes or S. pneumoniae. The experiments are conducted essentially as described by R. Pallanza et al., J. Antimicrob. Chemother. 11, 419 (1983).
(§5) The experimental infection was induced in mice by intraperitoneally administering a suspension of the test pathogens. Inocula had been adjusted so that the untreated animals died of septicemia within 48 h. Animals were treated subcutaneously with the test compound once a day for three days starting about 30 min after infection.
(§6) The ED50 value was calculated on the 10th day by the method of Spearman and Karber (D. J. Finney "Statistical Method in Biological Assay", Griffin, page 524, 1952) on the basis of the percentage of survival at each dose.

Series [3] is described as follows: Acid-base titration in MCS:H2O (pK of basic functions). The format is physicochemical. Conditions: MCS:H2O 4:1 (v/v). As for the experimental part: ^(2) Acid-base titrations were carried out in both aqueous
[methylcellosolve (MCS): water 4:1 (v/v)] and nonaqueous [pyridine or
acetic acid] solvents. The pKMCS values (pK2) of the additional
basic functions were determined in MCS:H2 O 4:1 (v/v) solution by
titration of the compounds with 0.01 N Na OH. The presence of the free
amino group of actagardine (pKMCS 6.3) in the derivatives, except
compound XIII, was confirmed by titration with 0.01 N HCl. Compound XIII
equivalent weights (E W) were obtained by titration with either
hydroxytetrabutylamine (HTBA) in pyridine or perchloric acid (HClO4)
actagardine (pKMCS 6.3) unmodified. Titration in MCS:H2 O 4:1

Series [4] is described as follows: Partition coefficient (log P) between n-octanol and water. The class given is physicochemical. How it is done:
^(3) Partition coefficients (log P) were determined between noctanol
and water. The concentration of the compounds in each phase was determine
spectrophotometrically (UV).
^(6) 0.1 M acetate buffer pH 3.0.
is log P between noctanol and 0.1 M phosphate buffer pH 7.3.

Another series has as its system S. pneumoniae UC41. In words: In vivo test in mice experimentally infected with S. pneumoniae UC41. Particulars: mice infected i.p. with S. pneumoniae UC41; s.c. once a day for three days; survival on 10th day. How it is done:
as §4, §5, §6

Another series can be described thus: Solubility in water. Particulars: for Solubility in water, pH 4.0 / Solubility in water, pH 7.3: approximate values.
Another series has as its system S. viridans L 1322. The series can be described thus: In vitro antibacterial activity (MIC), S. viridans L 1322. The class given is cell-based. Conditions: S. viridans L 1322, clinical isolate; 2% bovine serum. As for the experimental part:
as §2, §3

The test system of series [5] is S. pyogenes C 203. In words: Bactericidal activity against growing cells of S. pyogenes C 203. The format is cell-based. Conditions: 10 times the MIC, Todd-Hewitt broth, 37° C. As for the experimental part: The antibacterial activity of compound III (a and b) was compared with that of actagardine against growing cells of S. pyogenes C 203. […] For compound III, this level of killing action was obtained also at a dose equal to the MIC (0.4 ug/ml). This comparison was carried out on Todd-Hewitt broth(s) containing compound III and actagardine at concentrations equal to or multiple of the MIC which were inoculated with growing cells of S. pyogenes C 203 (~10^6 CFU/ml). The cultures were incubated at 37° C. with shaking and viable cells were counted at intervals.

The test system of the next series is gram-positive organisms. Conditions: in vitro and in vivo; cited from earlier work.
Where [6] appears, read: n-octanol/0.1 M acetate buffer pH 3.0.
Where [7] appears, read: in the presence of 30% bovine serum.

Like-named read-outs stand apart in the source and are kept apart here.

As to “N-ethyl actagardine 3,3-dimethylamino-1-propylamide monocarboxamide [Compound XIII]”, the MIC (in general, the lowest concentration found to suppress growth) against S. aureus TOUR (inoculum 10^3 CFU/ml) is 50 µg/mL; in the series on S. pyogenes C 203 [1], 0.8 µg/mL; in the series with S. pneumoniae UC 41, 12.5 µg/mL; in the series on S. mitis L 1320 it was 3.1 µg/mL; against S. faecalis D L 1321, 100 µg/mL; in the series with S. salivarius L 1323, 0.8 µg/mL. Besides, the results for the minimum inhibitory concentration (MIC) with S. sanguis H L 1324 and in the series on S. bovis D L 1325 were 50 µg/mL and 25 µg/mL, respectively. In addition, in the series on S. pyogenes C 203 [2], the ED50 (commonly the dose that gives a 50% effect, or the effect in half of the subjects) is 0.23 mg/kg.

In the case of “actagardine 3,3-dimethylamino-1-propylamide monocarboxamide, hydrochloride [IIIb]”, the “pk2 (MCS/H2O)” value in series [3] (pKMCS of additional basic function, titration with 0.01 N NaOH) amounted to 9.2. For the same substance, the “Partition Coeff. (log P), CH3(CH2)7OH/H2O, pH 3” value (shortened to “Partition Coeff. (log P) … pH 3”) in series [4] (setting [6]) is on record as -1.644. Also, the ED50 in the series with S. pyogenes C 203 [2] was 0.47 mg/kg. In the series with S. pneumoniae UC41, this substance yielded a 50% effective dose (ED50) of 3.5 mg/kg. For the same substance, in the series “Solubility in water”, the “Solubility in water, pH 4.0” value stood at 600 mg/ml and the “Solubility in water, pH 7.3” value turned out to be 200 mg/ml.

As to “actagardine N-(2-aminoethyl)-1,2-ethanediamine monocarboxamide [IV]”, the “Solubility in water, pH 4.0” value is recorded as 100 mg/ml. For the same substance, in series [4] (0.1 m acetate buffer, pH 3), the “Partition Coeff. (log P) … pH 3” value was -1.353. Further, in [4] (distilled water), the “Partition Coeff. (log P), CH3(CH2)7OH/H2O, H2O” value is -0.680. In addition, the MIC in the series with S. aureus TOUR (setting [7]) worked out at 12.5 µg/mL. The MIC in the series on S. aureus TOUR (inoculum 10^3 CFU/ml) is 50 µg/mL. Moreover, the MIC with S. aureus TOUR (inoculum 10^6 CFU/ml) is 50 µg/mL. For the same substance, the MIC with S. pyogenes C 203 [1] was determined as 0.8 µg/mL. This substance also returned an MIC against S. pneumoniae UC 41 of 12.5 µg/mL. The substance also displayed a minimum inhibitory concentration (MIC) in the series with S. mitis L 1320 of 3.1 µg/mL. In the series with S. faecalis D L 1321, this substance showed an MIC of 100 µg/mL. Also, the MIC against S. viridans L 1322 was found to be 25 µg/mL. Besides, the MIC in the series with S. salivarius L 1323 came to 0.8 µg/mL. Further, in the series with S. sanguis H L 1324, the minimum inhibitory concentration (MIC) came to 50 µg/mL. The same substance yielded a minimal inhibitory concentration (MIC) against S. bovis D L 1325 of 25 µg/mL. Further, in the series on S. pyogenes C 203 [2], the 50% effective dose (ED50) came out at 0.62 mg/kg.

For the substance actagardine [reference compound], the “pKMCS of the free amino group of actagardine” value in series [3] (titration with 0.01 N HCl) came to 6.3. In addition, in [4] (setting [6]), the “Partition Coeff. (log P) … pH 3” value was 0.357. The “log P between n-octanol and 0.1 M phosphate buffer pH 7.3” value in series [4] (n-octanol/0.1 M phosphate buffer pH 7.3) is recorded as -0.545. Further, the MIC with S. aureus TOUR (setting [7]) was 25 µg/mL; against S. aureus TOUR (inoculum 10^3 CFU/ml), 25 µg/mL; with S. aureus TOUR (inoculum 10^6 CFU/ml) it was 50 µg/mL; with S. pyogenes C 203 [1], 1.6 µg/mL; in the series with S. pneumoniae UC 41, 25 µg/mL; against S. mitis L 1320, 12.5 µg/mL. In addition, the minimum inhibitory concentration (MIC) in the series on S. faecalis D L 1321 was 100 µg/mL; in the series on S. viridans L 1322, 100 µg/mL; in the series on S. salivarius L 1323 it was 3.1 µg/mL; against S. sanguis H L 1324, 100 µg/mL; in the series on S. bovis D L 1325 it was 100 µg/mL. The substance further showed an ED50 in the series with S. pyogenes C 203 [2] of 0.81 mg/kg. Moreover, the killing effect in the series on S. pyogenes C 203 [5] (24 h) stood at 99.9%; with S. pyogenes C 203 [5] (after 5 h of incubation), 99%. For the same substance, the “antimicrobial activity (in words)” value in the series with gram-positive organisms was “antimicrobial in vitro and in vivo activity against gram-positive organisms”. Besides, the “solubility in water (in words)” value in “Solubility in water” (acid form) was “not soluble in water”. Also, the “Solubility in water, pH 4.0” value in the series “Solubility in water” is under 10 mg/ml. Also, the “Solubility in water, pH 7.3” value in the series “Solubility in water” stood at 70 mg/ml.

The record behind these values is patent publication US4684644A, “Basic monocarboxyamide derivatives of actagardine having antibiotic activity and compositions thereof” (Gruppo Lepetit S.p.A., priority 1985, dated 1987).
